Laboratory results from patent US20250230193A1, “CYCLIC COMPOUND HAVING SELECTIVE KRAS INHIBITORY EFFECT ON HRAS AND NRAS” (CHUGAI SEIYAKU KABUSHIKI KAISHA, priority 2022, published 2025).

Legend:
[1] = target: GDP-bound HRAS wild-type protein (Homo sapiens, UniProt P01112); experiment: Binding to HRAS by surface plasmon resonance (SPR), Single Cycle Kinetics; conditions: KD ratio HRAS/KRAS, SPR
[2] = target: GDP-bound NRAS wild-type protein (Homo sapiens, UniProt P01111); experiment: Binding to NRAS by surface plasmon resonance (SPR), Single Cycle Kinetics; conditions: KD ratio NRAS/KRAS, SPR
Chain of GDP-bound NRAS wild-type protein (P01111 whole entry): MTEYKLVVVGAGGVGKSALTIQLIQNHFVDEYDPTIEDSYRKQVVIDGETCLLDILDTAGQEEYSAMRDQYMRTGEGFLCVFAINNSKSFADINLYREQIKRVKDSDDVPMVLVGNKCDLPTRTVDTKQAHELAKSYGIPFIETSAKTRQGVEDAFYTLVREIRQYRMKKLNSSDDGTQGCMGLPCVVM

Chain of GDP-bound HRAS wild-type protein (P01112 whole entry): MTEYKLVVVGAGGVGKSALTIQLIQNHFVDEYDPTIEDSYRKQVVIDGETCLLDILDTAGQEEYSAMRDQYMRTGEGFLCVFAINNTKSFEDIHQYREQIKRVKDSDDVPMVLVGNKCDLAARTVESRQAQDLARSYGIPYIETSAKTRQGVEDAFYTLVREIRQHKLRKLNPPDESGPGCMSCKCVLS

Compound: CC[C@H](C)[C@@H]1NC(=O)[C@H](CC(C)C)N(C)C(=O)C[C@@H](C(=O)N2CCOCC2)N(C)C(=O)[C@H](C2CCCC2)N(C)C(=O)C2(CCCC2)NC(=O)[C@@H]2CCCN2C(=O)[C@H](CCc2ccc(C(F)(F)F)c(Cl)c2)NC(=O)CN(C)C(=O)[C@H](Cc2ccc(C)cc2)N2CC=CC[C@@H](C2=O)N(C)C(=O)CN(C)C1=O [PP0460]
- HRAS/KRAS (ratio of KD value with respect to GDP-bound HRAS wild-type protein to KD value with respect to KRAS) [1]: C (A compound having a KD ratio of 0.1 or more and less than 3 is denoted as C)
- NRAS/KRAS (ratio of KD value with respect to GDP-bound NRAS wild-type protein to KD value with respect to KRAS) [2]: C (A compound having a KD ratio of 0.1 or more and less than 3 is denoted as C)

Compound: CC[C@H](C)[C@@H]1NC(=O)[C@H](CC(C)C)N(C)C(=O)C[C@@H](C(=O)N2CCOCC2)N(C)C(=O)[C@H](C2CCCC2)N(C)C(=O)C2(CCCC2)NC(=O)[C@@H]2CCCN2C(=O)[C@H](CCc2ccc(C(F)(F)F)c(Cl)c2)NC(=O)CN(C)C(=O)[C@H](Cc2ccc(C)cc2)N2CC/C=C\C[C@@H](C2=O)N(C)C(=O)CN(C)C1=O [PP0461]
- HRAS/KRAS (ratio of KD value with respect to GDP-bound HRAS wild-type protein to KD value with respect to KRAS) [1]: A (a compound having 10 or more and less than 20 is denoted as A)
- NRAS/KRAS (ratio of KD value with respect to GDP-bound NRAS wild-type protein to KD value with respect to KRAS) [2]: A (a compound having 10 or more and less than 20 is denoted as A)

Compound: CC[C@H](C)[C@@H]1NC(=O)[C@H](CC(C)C)N(C)C(=O)C[C@@H](C(=O)N2CCOCC2)N(C)C(=O)[C@H](C2CCCC2)N(C)C(=O)C2(CCCC2)NC(=O)[C@@H]2CCCN2C(=O)[C@H](CCc2ccc(C(F)(F)F)c(Cl)c2)NC(=O)CN(C)C(=O)[C@H](Cc2ccc(C(F)(F)F)cc2)N2CC=CC[C@@H](C2=O)N(C)C(=O)CN(C)C1=O [PP0462]
- HRAS/KRAS (ratio of KD value with respect to GDP-bound HRAS wild-type protein to KD value with respect to KRAS) [1]: C (A compound having a KD ratio of 0.1 or more and less than 3 is denoted as C)
- NRAS/KRAS (ratio of KD value with respect to GDP-bound NRAS wild-type protein to KD value with respect to KRAS) [2]: C (A compound having a KD ratio of 0.1 or more and less than 3 is denoted as C)

Compound: CC[C@H](C)[C@@H]1NC(=O)[C@H](CC(C)C)N(C)C(=O)C[C@@H](C(=O)N2CCOCC2)N(C)C(=O)[C@H](C2CCCC2)N(C)C(=O)C2(CCCC2)NC(=O)[C@@H]2CCCN2C(=O)[C@H](CCc2ccc(C(F)(F)F)c(Cl)c2)NC(=O)CN(C)C(=O)[C@H](Cc2ccc(C(F)(F)F)cc2)N2CC/C=C\C[C@@H](C2=O)N(C)C(=O)CN(C)C1=O [PP0463]
- HRAS/KRAS (ratio of KD value with respect to GDP-bound HRAS wild-type protein to KD value with respect to KRAS) [1]: A (a compound having 10 or more and less than 20 is denoted as A)
- NRAS/KRAS (ratio of KD value with respect to GDP-bound NRAS wild-type protein to KD value with respect to KRAS) [2]: A (a compound having 10 or more and less than 20 is denoted as A)

Compound: CC[C@H](C)[C@@H]1NC(=O)[C@H](CC(C)C)N(C)C(=O)C[C@@H](C(=O)N(C)C)N(C)C(=O)[C@H](C2CCCC2)N(C)C(=O)C2(CCCC2)NC(=O)[C@@H]2CC(F)(F)CN2C(=O)[C@H](CCc2cc(F)c(C(F)(F)F)c(F)c2)NC(=O)CN(C)C(=O)[C@H](Cc2ccc(C(F)(F)F)cc2)N2CCCCC[C@@H](C2=O)N(C)C(=O)CN(C)C1=O [PP0465]
- HRAS/KRAS (ratio of KD value with respect to GDP-bound HRAS wild-type protein to KD value with respect to KRAS) [1]: B (a compound having 3 or more and less than 10 is denoted as B)
- NRAS/KRAS (ratio of KD value with respect to GDP-bound NRAS wild-type protein to KD value with respect to KRAS) [2]: B (a compound having 3 or more and less than 10 is denoted as B)

Compound: CC[C@H](C)[C@@H]1NC(=O)[C@H](CC(C)C)N(C)C(=O)C[C@@H](C(=O)N(C)C)N(C)C(=O)[C@H](C2CCCC2)N(C)C(=O)C2(CCC2)NC(=O)[C@@H]2CC(F)(F)CN2C(=O)[C@H](CCc2cc(F)c(C(F)(F)F)c(F)c2)NC(=O)CN(C)C(=O)[C@H](Cc2ccc(C(F)(F)F)cc2)N2CCCCC[C@@H](C2=O)N(C)C(=O)CN(C)C1=O [PP0466]
- HRAS/KRAS (ratio of KD value with respect to GDP-bound HRAS wild-type protein to KD value with respect to KRAS) [1]: B (a compound having 3 or more and less than 10 is denoted as B)
- NRAS/KRAS (ratio of KD value with respect to GDP-bound NRAS wild-type protein to KD value with respect to KRAS) [2]: B (a compound having 3 or more and less than 10 is denoted as B)

Compound: CCO[C@@H]1C[C@H]2C(=O)NC3(CCC3)C(=O)N(C)[C@@H](C3CCCC3)C(=O)N(C)[C@H](C(=O)N3CCOCC3)CC(=O)N(C)[C@@H](CC(C)C)C(=O)N[C@@H]([C@@H](C)CC)C(=O)N(C)CC(=O)N(C)[C@H]3CCCCCN(C3=O)[C@@H](Cc3ccc(C(F)(F)F)cc3)C(=O)N(C)CC(=O)N[C@@H](CCc3cc(F)c(C(F)(F)F)c(F)c3)C(=O)N2C1 [PP0467]
- HRAS/KRAS (ratio of KD value with respect to GDP-bound HRAS wild-type protein to KD value with respect to KRAS) [1]: B (a compound having 3 or more and less than 10 is denoted as B)
- NRAS/KRAS (ratio of KD value with respect to GDP-bound NRAS wild-type protein to KD value with respect to KRAS) [2]: B (a compound having 3 or more and less than 10 is denoted as B)

Compound: CCO[C@@H]1C[C@H]2C(=O)NC3(CCCC3)C(=O)N(C)[C@@H](C3CCCC3)C(=O)N(C)[C@H](C(=O)N(C)C)CC(=O)N(C)[C@@H](CC(C)C)C(=O)N[C@@H]([C@@H](C)CC)C(=O)N(C)CC(=O)N(C)[C@H]3CCCCCN(C3=O)[C@@H](Cc3ccc(C(F)(F)F)cc3)C(=O)N(C)CC(=O)N[C@@H](CCc3cc(F)c(C(F)(F)F)c(F)c3)C(=O)N2C1 [PP0468]
- HRAS/KRAS (ratio of KD value with respect to GDP-bound HRAS wild-type protein to KD value with respect to KRAS) [1]: B (a compound having 3 or more and less than 10 is denoted as B)
- NRAS/KRAS (ratio of KD value with respect to GDP-bound NRAS wild-type protein to KD value with respect to KRAS) [2]: B (a compound having 3 or more and less than 10 is denoted as B)
